# Where a name gives a salt, the structure may show the parent alone.
# Assays:
# hippocampal neurons = test: Test Example 1: ability to promote axonal outgrowth; type: cell-based, Wistar rats; conditions: for activity at 3 µM: Compound Conc. = 3 μM
# Description: According to the method of M. P. Mattson [M. P. Mattson, Brain Res. Rev., 13, 179, (1988)], the hippocampal region was isolated from 18-day embryos of female Wistar rats and the neurons were dispersed using the papain dissociation system. Hippocampal neuron were suspended in 5% Nu-serum+B27 supplement+Neurobasal medium at 5×10^4 cells/well/2 mL. 2 mL of the cell suspension were inoculated on a poly-D-lysine-coated 36φ dish and the neuron were incubated at 37° C. in a 5% CO2 incubator.
# On day 3 of the incubation period, 1 mL of the culture medium was replaced with 1 mL of 5% Nu-serum+B27 supplement+Neurobasal medium containing 2 mM AraC. Each test compound was added to the culture on day 3 and day 7 of the incubation period. On day 9, cells were fixed in a 4% paraformaldehyde solution. The nerve axons of the fixed cells were stained with the Rabbit anti-growth-associated protein-43 polyclonal antibody and the stained cells were quantified using Kurabo neuron outgrowth-quantication software.
# The ability (%) of each test compound to promote axonal outgrowth was calculated from the following equation: The ability to promote axonal outgrowth (%)=[(measurement with a compound of interest)/(measurement of control)]×100
# Example Compounds shown in Table 25 were used as test compounds and were each added at concentrations of 3 μM and 0.3 μM.
# Since bFGF gives a measurement of about 120 in this test, 120 is used as the threshold to determine whether a given compound has the ability to promote axonal outgrowth
# [1] = test system: mixture of human vascular endothelial cells and fibroblasts; test: Test Example 2: ability to promote angiogenesis (angiogenesis test kit KZ-1000); type: cell-based; conditions: for activity at 3 µM / activity at 0.3 µM: Homo sapiens, 216 h, lumen length, % of control, day 9, read-out: Promotion of angiogenesis (%); for activity at 3 µM: Compound Conc. = 3 μM; for activity at 0.3 µM: Compound Conc. = 0.3 μM
# Description: Using an angiogenesis test kit containing a mixture of human vascular endothelial cells and fibroblasts [KZ-1000; Kurabo], the ability of test compounds to promote angiogenesis was evaluated. Each test compound was added on days 1, 4, and 7 of the incubation period. On day 9, cells were immunostained with CD31 and photographed. Control cells were cultured under the same conditions, only without the addition of a test compound, and photographed.
# The lumen length of the blood vessel was quantified from the obtained images using an angiogenesis-quantification software. The ability (%) of each test compound to promote angiogenesis was calculated from the following equation: The ability to promote angiogenesis (%)=[(measurement with a compound of interest)/(measurement of control)]×100
# Example Compounds shown in Table 26 were used as test compounds.
# Since bFGF gives a measurement of about 120 in this test, 120 is used as the threshold to determine whether a given compound has the ability to promote angiogenesis.
# spinal cord neurons = test: Test Example 3: ability to promote the neurite outgrowth of spinal cord neurons; type: cell-based, Wistar rats; conditions: for Promotion of spinal cord neurite outgrowth (%): Compound Conc. = 0.1 μM, % of control, day 3
# Description: According to the method of Martin G. Hanson Jr. [J. Neurosci., 1998 Sep. 15; 18(18): 7361-71], the spinal cord region was isolated from 15-day embryos of female Wistar rats and the cells were dispersed using the papain dissociation system. Neurons were collected using 6.8% Metrizamide density gradient and were suspended in 2% FBS+Leibovitz's −15 medium so that the density of the cells will be 2×10^3 cells/well/200 μL. 200 μL of the cell suspension was inoculated on a poly-D-lysine/laminin-coated 96 well plate and the plate was incubated in an incubator at 37° C. Test compounds were added 1 hour after seeding of cells.
# On day 3 of the incubation period, neurons were stained with Calcein-AM and the lengths of neurites were determined using IN Cell Analyzer (GE Healthcare Bioscience).
# The ability (%) of each test compound to promote neurite outgrowth was calculated from the following equation: The ability to promote neurite outgrowth (%)=[(measurement with a compound of interest)/(measurement of control)]×100
# Example Compounds 65, 71, 74, 92, 130 and 135 were used as test compounds and were each added at a concentration of 0.1 μM.
# The results are shown in Table 27. bFGF gives a measurement of about 130 in this test.
# chemokine receptor CCR3 = molecular target: T1, chemokine receptor CCR3 (Homo sapiens, UniProt P51677); test: Affinity to chemokine receptor CCR3; type: binding; conditions: at a concentration of 10 μM
# T1 sequence (P51677 1-355): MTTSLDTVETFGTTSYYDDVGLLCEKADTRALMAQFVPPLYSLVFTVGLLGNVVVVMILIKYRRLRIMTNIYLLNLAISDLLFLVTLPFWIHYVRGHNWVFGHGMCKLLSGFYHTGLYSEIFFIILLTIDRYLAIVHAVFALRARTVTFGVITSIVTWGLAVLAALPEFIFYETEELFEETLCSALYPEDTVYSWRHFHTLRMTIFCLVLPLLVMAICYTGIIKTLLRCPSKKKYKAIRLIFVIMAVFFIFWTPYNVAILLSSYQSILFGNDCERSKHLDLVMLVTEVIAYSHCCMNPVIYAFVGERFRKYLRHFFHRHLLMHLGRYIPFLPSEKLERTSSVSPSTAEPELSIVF
# Excerpt: Although the compounds of the present invention are novel compounds, compounds having a partly similar skeleton are described, for example, in Published Japanese Translation of PCT International Application No. 2003-507456, WO 01/79170 and WO 00/23076.
# [2] = Hippocampal neuron, 216 h, % of control, rat hippocampal neurons, day 9, read-out: Promotion of axonal outgrowth (%)
# [3] = reference, concentration not given, used as threshold
Compound,activity at 3 µM (hippocampal neurons; [2]) [%],activity at 3 µM [1] [%],affinity to chemokine receptor CCR3 (chemokine receptor CCR3) [%],also measured
"Cc1nc(OCC(=O)N(C)C2CCN(CC3CCCCC3)CC2)nc(C)c1N [Compound 71, 2-(5-amino-4,6-dimethylpyrimidine-2-yloxy)-N-(1-(cyclohexylmethyl)piperidine-4-yl)-N-methylacetamide]",140,126,–,Promotion of spinal cord neurite outgrowth (%) (spinal cord neurons): 139%
"Cc1nc(OCC(=O)N(C)C2CCN(C(=O)c3ccccc3)CC2)nc(C)c1N [Compound 74, 2-(5-amino-4,6-dimethylpyrimidine-2-yloxy)-N-(1-benzoylpiperidine-4-yl)-N-methylacetamide]",159,136,–,Promotion of spinal cord neurite outgrowth (%) (spinal cord neurons): 125%
"Cc1nc(OCC(=O)N(C)C2CCN(Cc3ccc(F)cc3)CC2)nc(C)c1N [Compound 85, 2-(5-amino-4,6-dimethylpyrimidine-2-yloxy)-N-(1-(4-fluorobenzyl)piperidine-4-yl)-N-methylacetamide]",140,123,2.4,–
"Cc1nc(OCC(=O)N(C)C2CCN(Cc3cc(F)c(F)c(F)c3)CC2)nc(C)c1N [Compound 91, 2-(5-amino-4,6-dimethylpyrimidine-2-yloxy)-N-methyl-N-(1-(3,4,5-trifluorobenzyl)piperidine-4-yl)acetamide]",150,124,18,–
"CNc1c(C)nc(OC(C)C(=O)N(C)C2CCN(Cc3ccccc3)CC2)nc1C (stereo not shown) [Compound 100, N-(1-benzylpiperidine-4-yl)-2-(4,6-dimethyl-5-(methylamino)pyrimidine-2-yloxy)-N-methylpropanamide]",128,–,–,activity at 0.3 µM [1]: 116%
"Cc1nc(OCC(=O)NC2CCN(C(=O)c3ccc(F)cc3)CC2)nc(C)c1N [Compound 102, 2-(5-amino-4,6-dimethylpyrimidine-2-yloxy)-N-(1-(4-fluorobenzoyl)piperidine-4-yl)acetamide]",233,–,0.0,–
"Cc1cnc(Cl)nc1NCC(=O)N(C)C1CCN(Cc2ccccc2)CC1 [Compound 109, N-(1-benzylpiperidine-4-yl)-2-(2-chloro-5-methylpyrimidine-4-ylamino)-N-methylacetamide]",159,124,16,–
"Cc1cnc(N)nc1NCC(=O)N(C)C1CCN(Cc2ccccc2)CC1 [Compound 111, 2-(2-amino-5-methylpyrimidine-4-ylamino)-N-(1-benzylpiperidine-4-yl)-N-methylacetamide maleate]",–,121,–,"activity at 0.3 µM (hippocampal neurons; Hippocampal neuron, 216 h, Compound Conc. = 0.3 μM, % of control, rat hippocampal neurons, day 9, read-out: Promotion of axonal outgrowth (%)): 118%"
"Cc1cc([N+](=O)[O-])cnc1NCC(=O)N(C)C1CCN(Cc2ccccc2)CC1 [Compound 123, N-(1-benzylpiperidine-4-yl)-N-methyl-2-(3-methyl-5-nitropyridine-2-ylamino)acetamide]",131,132,–,–
"CN(C(=O)COc1nccnc1Cl)C1CCN(Cc2ccccc2)CC1 [Compound 128, N-(1-benzylpiperidine-4-yl)-2-(3-chloropyrazine-2-yloxy)-N-methylacetamide hydrochloride]",156,–,–,activity at 0.3 µM [1]: 115%
"bFGF: basic fibroblast growth factor (bFGF), a growth factor known to promote angiogenesis; reference that sets the threshold",–,–,–,"Promotion of axonal outgrowth, measurement of bFGF in this test (hippocampal neurons; [3]): about 120%; Promotion of angiogenesis, measurement of bFGF in this test [1, 3]: about 120%; Promotion of spinal cord neurite outgrowth, measurement of bFGF in this test (spinal cord neurons; reference, concentration not given): about 130%"
